Experimental data reported in patent US20220119440A1, “PEPTIDE AND METHOD FOR MANUFACTURING SAME” (AGC Inc., priority 2019, published 2022).
Like-named read-outs stand apart in the source and are kept apart here. Peptide text beside a SMILES is read from it. * marks the point of attachment. NHBn = c1ccc(CN*)cc1

Columns and labels:
[1] = MDCK-II assay (cell monolayer assay); type: in vitro ADME; conditions: dog
Method: (§1) Further, with respect to the peptides synthesized in Examples 14, 15 and 17 and Comparative Examples 5,6 and 8, MDCK-II assay was conducted. For the MDCK-II assay, propranolol (CAS No: 318-98-9) was used as a positive control (“PC”) and Norfloxacin (CAS No: 70458-96-7) as a negative control (“NC”).
MDCK-II cells were seeded on Cell Culture Inserts (Falcon) at 5.04×10^4 cells/mL, and 5 days after seeding, cell monolayer assay (MDCK-II assay) was conducted. The peptide stock solution was prepared at 2 mM in DMSO solution, and diluted with HBSS containing 20 mM of HEPES (pH 7.5) to prepare a 2 μM peptide solution using as a solvent 0.1% DMSO/HBSS (+), as a donor solution. The acceptor solution was a 0.1% DMSO solution using as a solvent HBSS (+) containing 20 mM of HEPES (pH 7.5). […] The peptide concentration was analyzed by LC/MS. The experiment was conducted repeatedly three times. The permeability (Papp) was calculated in accordance with the following formula.
A: filter area (0.3 cm^2) VB: basolateral well volume (0.75 cm^3) t: incubation time (s) (2 hours=7200 s) C0: initial concentration in apical chamber (2 μM) CB (t): basolateral compound concentration at time t

[2] = PAMPA (Parallel Artificial Membrane Permeability Assay); type: in vitro ADME
Method: as §1
Permeability of the peptides was evaluated by PAMPA. In the PAMPA, 300 μL of a 5% DMSO-containing PBS was added to the respective wells of an accepter plate (MultiScreen 96-well transport receiver plate, manufactured by Merck), and 150 μL of a peptide solution (20 μM) dissolved in 5% DMSO/PBS was added to the respective wells of a donor plate (MultiScreen-IP filter plate, 0.45 μm, manufactured by Merck). A dodecane solution of 1% lecithin (from soybean) was subjected to ultrasonic treatment for 30 minutes before use, and 5 μL of the solution was applied to the membrane support (PVDF) of the respective wells of the donor plate. The donor plate was placed on the acceptor plate, and the plates were left to stand in an incubator at 25° C. for 18 hours. The peptide concentration was determined by LC/MS. The experiment was conducted repeatedly three times. The permeability (Pe) was calculated in accordance with the following formulae.
A: filter area (0.3 cm^2) VD: volume of donor well (0.15 cm^3) VA: volume of acceptor well (0.3 cm^3) t: incubation time (s) (18 hours=64800 s) CD (t): compound concentration in donor well at time t CA (t): compound concentration in acceptor well at time t

[3] = MDCK-II monolayer, 2 μM peptide, apical side to basolateral side, 37° C., 5% CO2, 2 hours, repeated three times, read-out: Papp
[4] = peptide 20 μM in 5% DMSO/PBS, 1% lecithin in dodecane on PVDF, 25° C. for 18 hours, repeated three times, read-out: Pe

Row | Papp A→B at 2 h, 2 μM ([1]; MDCK) | Papp at 18 h, 20 μM [2] | Structure (SMILES) | Papp A→B at 2 h, 2 μM [1, 3] | Papp at 18 h, 20 μM [2, 4]
1 | 1.23 ×10⁻⁶ cm/s | – | CC(=O)N[C@@H](C)C(=O)N[C@@H](C)C(=O)NCc1ccccc1 [Comparative Example 5, Ac-L-Ala-L-Ala-NHBn, reference compound] (Ac-Ala-Ala-NHBn) | – | –
2 | – | ≤ 0.003 ×10⁻⁶ cm/s | CC(=O)N[C@H](C(=O)N[C@@H](C)C(=O)N(C)C)C(C)C [Comparative Example 7, Ac-L-Val-L-Ala-NMe2, reference compound] (Ac-Val-Ala-NMe2) | – | –
3 | 7.12 ×10⁻⁶ cm/s | 0.07 ×10⁻⁶ cm/s | CC(=O)N[C@H](C(=O)N[C@@H](Cc1ccccc1)C(=O)NCC(C)C)C(C)C [Comparative Example 8, Ac-L-Val-L-Phe-iBu, reference compound] | – | –
4 | – | – | CC(=O)NC(C(=O)N[C@@H](C)C(=O)NCc1ccccc1)C(F)(F)F (stereo partly drawn) [Example 14, Ac-D,L-Ala (F3)-L-Ala-NHBn] | 3.26 ×10⁻⁶ cm/s | –
5 | – | – | CC(=O)NC(C(=O)N[C@@H](Cc1ccccc1)C(=O)NCC(C)C)C(F)(F)F (stereo partly drawn) [Example 15, Ac-D,L-Ala (F3)-L-Phe-iBu] | 9.86 ×10⁻⁶ cm/s | 0.19 ×10⁻⁶ cm/s
6 | – | – | CC(=O)NC(C(=O)N[C@@H](C)C(=O)N(C)C)C(C(F)(F)F)C(F)(F)F (stereo partly drawn) [Example 16, Ac-D,L-Val (F6)-L-Ala-NMe2] | – | 0.04 ×10⁻⁶ cm/s
7 | – | – | CC(=O)NC(C(=O)N[C@@H](Cc1ccccc1)C(=O)NCC(C)C)C(C(F)(F)F)C(F)(F)F (stereo partly drawn) [Example 17, Ac-D,L-Val (F6)-L-Phe-iBu] | 8.38 ×10⁻⁶ cm/s | 1.57 ×10⁻⁶ cm/s
